{
  "source": "patent US20170224662A1",
  "about": "(priority 2016, published 2017)",
  "type_in_all_cases": "physicochemical",
  "key": {"physchem [1]": {"assay": "physchem", "conditions": "aqueous buffer, thermodynamic from solid, read-out: Actual [CPMM] Concentration (maximum solubility)", "method": "CPMM was evaluated for maximum solubility in aqueous pH 1-9 buffer solutions. CPMM was weighted into 1.0 mL of each solution, vortex mixed to solubilize, and placed on a shaker table until saturated. Additional CPMM was added and replaced on the shaker table until a saturated solution was obtained. The one exception was the pH 1 sample solution, which never reached saturation level due to the CPMM's high solubility at that pH range. Saturated solutions were centrifuged and the supernatants were analyzed by HPLC."}, "physchem [2]": {"assay": "physchem", "conditions": "for HPLC [CPMM] Concentration: diluted sample; for Actual [CPMM] Concentration: never saturated, stopped after 100 mg added", "method": "CPMM solubility was also evaluated in common solvents: water, methanol, ethanol, acetonitrile, and isopropanol. CPMM was weighed into 1.0 mL of each solvent and vortex-mixed. Only the water sample was saturated with CPMM; the other solvents never achieved saturation due to their high CPMM solubility. The screening was stopped after 100 mg of bulk CPMM had been added. Table 2 lists the ABP-700 solubility results in common solvents."}, "[3]": {"assay": "1- and 2-week accelerated stability of CPMM (~0.3 mg/mL) in aqueous pH buffer media, HPLC purity", "conditions": "for CPMM % Purity: t = 0", "method": "The aqueous CPMM pH 1-9 samples described above were diluted as necessary to approximately 0.3 mg/mL and placed on accelerated stability at 25° C./60% relative humidity and 40° C./75% relative humidity conditions for two weeks. Samples were pulled at t=0, 1, and 2 weeks from set-up, and analyzed by HPLC. Samples were diluted to approximately 0.3 mg/mL, which well below the HPLC method nominal concentration, due to concerns of precipitation during the two week stability study. The injection volume was increased to compensate for the lower drug concentration in solution. The change in CPMM purity over the study duration is listed in Table 3 and plotted in FIGS. 3-5.\nThe pH 1 sample was placed on stability at a non-diluted concentration due to an error. This sample was re-diluted at the one-week time point to match the concentration in the pH 2-9 samples and re-placed on stability. The pH 9 sample results were not included in FIGS. 3-5 due to excessive degradation and for easier visual assessment over the more relevant pH 2-8 range."}, "physchem [4]": {"assay": "physchem", "conditions": "thermodynamic from solid", "method": "A study was conducted to evaluate whether buffer concentration affects the maximum solubility of CPMM. […] The solutions were prepared and CPMM was added until saturation was achieved. The pH was controlled by continually titrating the solutions to pH 6 using NaOH. Saturation was determined to have been achieved after the pH had stabilized and undissolved remained in the vial after overnight shaking. Solubility was evaluated by taking two separate samplings over the course of two days to verify that saturation had been achieved. Solubility was measured when the formulations were at room temperature, as well as tested when the formulations were under sub-ambient conditions (2-8° C.) to evaluate whether the solubility would be affected at lower temperatures for long term storage at (2-8° C.)."}},
  "note": "Read-outs that look alike come from different tables or passages of the source.",
  "data": [
    {"smiles": "COC(=O)C1(OC(=O)c2cncn2[C@H](C)c2ccccc2)CC1", "note": "[CPMM, 1-(methoxycarbonyl)cyclopropyl-1-[(1R)-1-phenylethyl]-1H-imidazole-5-carboxylate]", "values": [
      {"measurement": "solubility", "setting": "physchem [1]; 50 mM buffer pH 1 (phosphoric acid), actual pH 0.63, never saturated, not a true maximum solubility", "result": 404000, "unit": "µg/mL"},
      {"measurement": "solubility", "setting": "physchem [1]; 50 mM buffer pH 2 (phosphoric acid), actual pH 1.43", "result": 49400, "unit": "µg/mL"},
      {"measurement": "solubility", "setting": "physchem [1]; 50 mM buffer pH 3 (phosphoric acid), actual pH 2.62", "result": 3150, "unit": "µg/mL"},
      {"measurement": "solubility", "setting": "physchem [1]; 50 mM buffer pH 4 (citric acid), actual pH 3.5", "result": 677, "unit": "µg/mL"},
      {"measurement": "solubility", "setting": "physchem [1]; 50 mM buffer pH 5 (citric acid), actual pH 4.57", "result": 325, "unit": "µg/mL"},
      {"measurement": "solubility", "setting": "physchem [1]; 50 mM buffer pH 6 (citric acid), actual pH 5.55", "result": 284, "unit": "µg/mL"},
      {"measurement": "solubility", "setting": "physchem [1]; 50 mM buffer pH 7 (phosphoric acid), actual pH 6.68", "result": 268, "unit": "µg/mL"},
      {"measurement": "solubility", "setting": "physchem [1]; 50 mM buffer pH 8 (phosphoric acid), actual pH 7.48", "result": 260, "unit": "µg/mL"},
      {"measurement": "solubility", "setting": "physchem [1]; 50 mM buffer pH 9 (phosphoric acid), actual pH 8.81", "result": 279, "unit": "µg/mL"},
      {"measurement": "HPLC [CPMM] Concentration", "setting": "physchem [2]; Acetonitrile, dilution factor 166.67", "result": 474.2, "unit": "µg/mL"},
      {"measurement": "Actual [CPMM] Concentration", "setting": "physchem [2]; Acetonitrile", "result": 79034.9, "unit": "µg/mL"},
      {"measurement": "HPLC [CPMM] Concentration", "setting": "physchem [2]; Ethanol, dilution factor 166.67", "result": 534.3, "unit": "µg/mL"},
      {"measurement": "Actual [CPMM] Concentration", "setting": "physchem [2]; Ethanol", "result": 89051.8, "unit": "µg/mL"},
      {"measurement": "HPLC [CPMM] Concentration", "setting": "physchem [2]; Isopropanol, dilution factor 166.67", "result": 514.5, "unit": "µg/mL"},
      {"measurement": "Actual [CPMM] Concentration", "setting": "physchem [2]; Isopropanol", "result": 85751.7, "unit": "µg/mL"},
      {"measurement": "HPLC [CPMM] Concentration", "setting": "physchem [2]; Methanol, dilution factor 166.67", "result": 503.2, "unit": "µg/mL"},
      {"measurement": "Actual [CPMM] Concentration", "setting": "physchem [2]; Methanol", "result": 83868.3, "unit": "µg/mL"},
      {"measurement": "HPLC [CPMM] Concentration", "setting": "physchem [2]; Water, dilution factor 6.67", "result": 449.2, "unit": "µg/mL"},
      {"measurement": "solubility thermodynamic", "setting": "physchem [2]; thermodynamic from solid, Water, saturated, read-out: Actual [CPMM] Concentration", "result": 3000, "unit": "µg/mL"},
      {"measurement": "CPMM % Purity", "setting": "[3]; 50 mM buffer pH 2 (Phosphoric Acid)", "result": 99.39, "unit": "%"},
      {"measurement": "CPMM % Purity", "setting": "[3]; 50 mM buffer pH 3 (Phosphoric Acid)", "result": 99.33, "unit": "%"},
      {"measurement": "CPMM % Purity", "setting": "[3]; 50 mM buffer pH 4 (Citric Acid)", "result": 98.59, "unit": "%"},
      {"measurement": "CPMM % Purity", "setting": "[3]; 50 mM buffer pH 5 (Citric Acid)", "result": 97.77, "unit": "%"},
      {"measurement": "CPMM % Purity", "setting": "[3]; 50 mM buffer pH 6 (Citric Acid)", "result": 97.55, "unit": "%"},
      {"measurement": "CPMM % Purity", "setting": "[3]; 50 mM buffer pH 7 (Phosphoric Acid)", "result": 98.16, "unit": "%"},
      {"measurement": "CPMM % Purity", "setting": "[3]; 50 mM buffer pH 8 (Phosphoric Acid)", "result": 98.32, "unit": "%"},
      {"measurement": "CPMM % Purity", "setting": "[3]; 50 mM buffer pH 9 (Boric Acid)", "result": 94.98, "unit": "%"},
      {"measurement": "Change in CPMM % Purity", "setting": "[3]; pH 5 (Citric Acid), 25° C./60% RH, t = 1 week", "result": "−0.62", "unit": "%"},
      {"measurement": "Change in CPMM % Purity", "setting": "[3]; pH 5 (Citric Acid), 25° C./60% RH, t = 2 week", "result": "−1.06", "unit": "%"},
      {"measurement": "Change in CPMM % Purity", "setting": "[3]; pH 5 (Citric Acid), 40° C./75% RH, t = 1 week", "result": "−2.16", "unit": "%"},
      {"measurement": "Change in CPMM % Purity", "setting": "[3]; pH 5 (Citric Acid), 40° C./75% RH, t = 2 week", "result": "−3.48", "unit": "%"},
      {"measurement": "Change in CPMM % Purity", "setting": "[3]; pH 6 (Citric Acid), 25° C./60% RH, t = 1 week", "result": "−0.33", "unit": "%"},
      {"measurement": "Change in CPMM % Purity", "setting": "[3]; pH 6 (Citric Acid), 25° C./60% RH, t = 2 week", "result": "−0.55", "unit": "%"},
      {"measurement": "Change in CPMM % Purity", "setting": "[3]; pH 6 (Citric Acid), 40° C./75% RH, t = 1 week", "result": "−2.72", "unit": "%"},
      {"measurement": "Change in CPMM % Purity", "setting": "[3]; pH 6 (Citric Acid), 40° C./75% RH, t = 2 week", "result": "−3.49", "unit": "%"},
      {"measurement": "Change in CPMM % Purity", "setting": "[3]; pH 7 (Phosphoric Acid), 25° C./60% RH, t = 1 week", "result": "−0.39", "unit": "%"},
      {"measurement": "Change in CPMM % Purity", "setting": "[3]; pH 7 (Phosphoric Acid), 25° C./60% RH, t = 2 week", "result": "−0.96", "unit": "%"},
      {"measurement": "solubility", "setting": "physchem [4]; 2 °C, pH 6.02, aqueous with cosolvent or surfactant or cyclodextrin, 10% SBECD in 25 mM Citrate, 2-8° C./ambient RH, pH 6.02, read-out: CPMM Amount (maximum solubility)", "result": 5590, "unit": "µg/mL"},
      {"measurement": "solubility", "setting": "physchem [4]; 2 °C, pH 6.05, aqueous with cosolvent or surfactant or cyclodextrin, 10% SBECD in 10 mM Citrate, 2-8° C./ambient RH, pH 6.05, read-out: CPMM Amount (maximum solubility)", "result": 5480, "unit": "µg/mL"},
      {"measurement": "solubility", "setting": "physchem [4]; pH 5.96, aqueous buffer, 10 mM Citrate, RT/Ambient RH, pH 5.96, read-out: CPMM Amount (maximum solubility)", "result": 300, "unit": "µg/mL"},
      {"measurement": "solubility", "setting": "physchem [4]; pH 5.98, aqueous buffer, 50 mM Citrate, RT/Ambient RH, pH 5.98, read-out: CPMM Amount (maximum solubility)", "result": 230, "unit": "µg/mL"},
      {"measurement": "solubility", "setting": "physchem [4]; pH 5.98, aqueous with cosolvent or surfactant or cyclodextrin, 10% SBECD in 10 mM Citrate, RT/Ambient RH, pH 5.98, read-out: CPMM Amount (maximum solubility)", "result": 5470, "unit": "µg/mL"},
      {"measurement": "solubility", "setting": "physchem [4]; pH 5.98, aqueous with cosolvent or surfactant or cyclodextrin, 10% SBECD in 25 mM Citrate, RT/Ambient RH, pH 5.98, read-out: CPMM Amount (maximum solubility)", "result": 5490, "unit": "µg/mL"},
      {"measurement": "solubility", "setting": "physchem [4]; pH 5.99, aqueous with cosolvent or surfactant or cyclodextrin, 10% SBECD in 50 mM Citrate, RT/Ambient RH, pH 5.99, read-out: CPMM Amount (maximum solubility)", "result": 5680, "unit": "µg/mL"},
      {"measurement": "solubility", "setting": "physchem [4]; pH 6, aqueous buffer, 25 mM Citrate, RT/Ambient RH, pH 6.00, read-out: CPMM Amount (maximum solubility)", "result": 280, "unit": "µg/mL"},
      {"measurement": "solubility", "setting": "physchem [4]; pH 6, aqueous buffer, citrate solutions containing no SBECD, read-out: solubility", "result": "~300", "unit": "µg/mL"},
      {"measurement": "solubility", "setting": "physchem [4]; pH 6, aqueous with cosolvent or surfactant or cyclodextrin, 10% SBECD solutions at all citrate concentrations, regardless of the condition, read-out: solubility", "result": "~5500", "unit": "µg/mL"}
    ]}
  ]
}
